From PubChem BioAssay (NCI) come the findings set out here.

The structures appear in SMILES notation.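 Step 1: Grow cells in 96-well plates. Step 2: Expose to compound for 48 hours at 5 concentrations. Step 3: Interpolate endpoints linearly; if unreached, use highest concentration. TGI is the concentration that stops growth completely.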

Test systems include HCT-116 colon; RXF 393 renal; NCI-H23 lung; SK-MEL-5 melanoma; CCRF-CEM leukemia; NCI/ADR-RES ovarian; ACHN renal; NCI-H226 lung; OVCAR-8 ovarian; M14 melanoma.
Experiment in all cases: NCI-60 cell line screen, 48 h

For `N#CC1=C(N)N(/N=C/c2ccccc2)C(c2ccccc2)C1(C#N)C#N` (stereo not given), the TGI with HCT-116 colon amounted to 8.13 µM; with RXF 393 renal, 9.83 µM; with NCI-H23 lung, 33.5 µM; with SK-MEL-5 melanoma it was 30.9 µM; in the assay with CCRF-CEM leukemia, 6.12 µM; with NCI/ADR-RES ovarian it was 54.2 µM. For the same compound, the TGI in the assay with ACHN renal stood at 14.9 µM; with NCI-H226 lung it was 37.2 µM; with OVCAR-8 ovarian it was 38 µM; in the assay on M14 melanoma, 42.8 µM.

With `COC(=O)c1c(CC(Cc2ccc3c(c2)CCCC3)C(=O)O)ccc2c1CCCC2` (stereo not given), the TGI in the assay on HCT-116 colon is 33.1 µM; in the assay with RXF 393 renal, over 100 µM; in the assay with NCI-H23 lung, over 100 µM; in the assay with SK-MEL-5 melanoma, over 100 µM; in the assay on CCRF-CEM leukemia, over 100 µM; with NCI/ADR-RES ovarian, 34.4 µM. The TGI with ACHN renal, with NCI-H226 lung, in the assay with OVCAR-8 ovarian and with M14 melanoma was over 100 µM each time.

On to `O=c1[nH]c(SCc2cccc([N+](=O)[O-])c2)nc2nc[nH]c12`, for which the TGI with HCT-116 colon, in the assay on RXF 393 renal, in the assay on NCI-H23 lung, in the assay on SK-MEL-5 melanoma, in the assay with CCRF-CEM leukemia and in the assay with NCI/ADR-RES ovarian was over 100 µM throughout. Besides, the TGI with ACHN renal, in the assay on NCI-H226 lung, with OVCAR-8 ovarian and with M14 melanoma was over 100 µM in each case.

For `Cc1cccc2[nH]c3c(c(O)cc4[nH]c5cccc(C)c5c(=O)c43)c(=O)c12`, the TGI in the assay with HCT-116 colon is over 10 µM; with RXF 393 renal it was over 10 µM; in the assay on NCI-H23 lung, 8.5 µM; in the assay with SK-MEL-5 melanoma, over 10 µM; in the assay on CCRF-CEM leukemia, over 10 µM; with NCI/ADR-RES ovarian, over 10 µM. The TGI in the assay on ACHN renal, with NCI-H226 lung, in the assay on OVCAR-8 ovarian and in the assay on M14 melanoma was over 10 µM each time.

With `N#[N+]c1c([O-])c2ccccc2c2ccccc12`, the TGI in the assay with HCT-116 colon was over 100 µM; in the assay with RXF 393 renal, 45 µM; in the assay on NCI-H23 lung, over 100 µM; in the assay on SK-MEL-5 melanoma, 35.4 µM; in the assay with CCRF-CEM leukemia, over 100 µM; with NCI/ADR-RES ovarian, over 100 µM. The TGI was over 100 µM with ACHN renal, 89.3 µM in the assay on NCI-H226 lung, over 100 µM with OVCAR-8 ovarian and over 100 µM in the assay on M14 melanoma.

Turning to `CCCCc1ccc(-n2sc3ncc(-c4ccccc4)cc3c2=O)cc1`, the TGI with HCT-116 colon, in the assay with RXF 393 renal, in the assay with NCI-H23 lung, in the assay with SK-MEL-5 melanoma, in the assay on CCRF-CEM leukemia and in the assay on NCI/ADR-RES ovarian was over 100 µM throughout. In addition, the TGI in the assay on ACHN renal, in the assay on NCI-H226 lung, in the assay with OVCAR-8 ovarian and in the assay with M14 melanoma was over 100 µM each time.

For the compound `COc1ccc2c(O)c(S(=O)(=O)c3ccc(C)cc3)c(=O)oc2c1OC`, the TGI in the assay on HCT-116 colon, in the assay on RXF 393 renal, in the assay on NCI-H23 lung, in the assay on SK-MEL-5 melanoma, with CCRF-CEM leukemia and in the assay with NCI/ADR-RES ovarian was over 100 µM in each case. The TGI in the assay on ACHN renal, in the assay with NCI-H226 lung, with OVCAR-8 ovarian and with M14 melanoma was over 100 µM throughout.

Turning to `Cc1ccc(-c2c(-c3ccccc3)[nH]c(C)c2C(=O)ONC(=O)c2ccccc2)cc1`, the TGI in the assay with HCT-116 colon is 7.27 µM; with RXF 393 renal, 5.83 µM; in the assay on NCI-H23 lung it was 17.4 µM; with SK-MEL-5 melanoma it was 18.3 µM; in the assay on CCRF-CEM leukemia, over 27.1 µM; in the assay with NCI/ADR-RES ovarian, 18.3 µM. Further, the TGI in the assay on ACHN renal was found to be 4.15 µM; in the assay on NCI-H226 lung, 19.1 µM; in the assay with OVCAR-8 ovarian, 18.5 µM; in the assay on M14 melanoma, 18 µM.

`COc1cc(C(=O)Oc2c(C(C)=O)sc3c2c(=O)n(-c2ccccc2)c(=S)n3-c2ccccc2)cc(OC)c1OC`: the TGI in the assay on HCT-116 colon came to 36.2 µM; with RXF 393 renal, 41.6 µM; in the assay with NCI-H23 lung, 39.9 µM; in the assay on SK-MEL-5 melanoma, 32.1 µM; with CCRF-CEM leukemia, 45.8 µM; with NCI/ADR-RES ovarian, 43.5 µM. Also, the TGI in the assay with ACHN renal is 66 µM; in the assay with NCI-H226 lung it was 25.9 µM; in the assay on OVCAR-8 ovarian, 53.7 µM; in the assay with M14 melanoma, 32.9 µM.

With `COc1ccc(-c2c(-c3ccc(OC)cc3)n3c(=O)n(C)c(=O)n23)cc1`, the TGI was over 100 µM with HCT-116 colon; over 100 µM with RXF 393 renal; over 100 µM with NCI-H23 lung; over 100 µM in the assay on SK-MEL-5 melanoma; over 100 µM with CCRF-CEM leukemia; 89.9 µM with NCI/ADR-RES ovarian. For the same compound, the TGI in the assay on ACHN renal was over 100 µM; in the assay with NCI-H226 lung, over 100 µM; in the assay on OVCAR-8 ovarian, 52.9 µM; with M14 melanoma it was over 100 µM.

Take `O=[N+]([O-])C(/C(Cl)=C(\Cl)Br)=C(/Cl)SCc1ccccc1`: the TGI in the assay with HCT-116 colon was 7.11 µM; in the assay on RXF 393 renal, 4.85 µM; with NCI-H23 lung, 14.9 µM; in the assay on SK-MEL-5 melanoma, 15 µM; in the assay with CCRF-CEM leukemia, 6.25 µM; with NCI/ADR-RES ovarian it was 8.62 µM. In addition, the TGI in the assay on ACHN renal is 8.64 µM; with NCI-H226 lung it was 36.7 µM; in the assay with OVCAR-8 ovarian, 8.13 µM; in the assay on M14 melanoma, 9.15 µM.

For the compound `CC(C)=NOC(=O)CNC(=O)C(Cc1ccccc1)NC(=O)C(C)NC(=O)OC(C)(C)C` (stereo not given), the TGI in the assay on HCT-116 colon, in the assay with RXF 393 renal, in the assay with NCI-H23 lung, in the assay with SK-MEL-5 melanoma, in the assay on CCRF-CEM leukemia and with NCI/ADR-RES ovarian was over 100 µM in each case. Further, the TGI in the assay with ACHN renal, in the assay on NCI-H226 lung, with OVCAR-8 ovarian and in the assay on M14 melanoma was over 100 µM each time.
